According to US11214803B2, “Modulators of YAP1 expression” (Ionis Pharmaceuticals, Inc., priority 2019, dated 2022):
Strand notation (5' to 3'): a small letter for the sugar, then the base; units joined by * are phosphorothioate-linked, units joined directly phosphodiester-linked; [ ] holds rarer units or linkages, { } end groups; capitals alone tell only the bases. k = constrained ethyl (cEt); [5mC] = 5-methylcytosine; d = 2'-deoxy (DNA); m = 2'-O-methyl

test system: Yap1 mRNA; assay: Antisense inhibition of human Yap1 in SNU-449 cells by modified oligonucleotides, single dose (Example 5, RTS36584); assay type: cell-based; conditions: Table 48; Yap1 mRNA level relative to untreated control; modified oligonucleotides targeting SEQ ID NO.: 1 and 2
Outline: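 Values are Yap1 mRNA as percent of untreated control cells, measured by quantitative real-time RT-PCR using RTS36584 and normalised to total RNA by RIBOGREEN. Cells were SNU-449, dosed by free uptake at 2,000 nM for approximately 48 hours.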

Substance	YAP1 (% UT)
1197213 (antisense kT*kG*kT*dA*dT*dG*dT*d[5mC]*dA*dG*dA*dA*dG*kA*kG*kT) [Compound 1197213]	5
1197214 (antisense kA*kG*kT*dG*dT*dA*dT*dG*dT*d[5mC]*dA*dG*dA*kA*kG*kA) [Compound 1197214]	5
1197215 (antisense kA*kA*kG*dT*dG*dT*dA*dT*dG*dT*d[5mC]*dA*dG*kA*kA*kG) [Compound 1197215]	13
1197216 (antisense kA*kA*kA*dG*dT*dG*dT*dA*dT*dG*dT*d[5mC]*dA*kG*kA*kA) [Compound 1197216]	12
1197217 (antisense kT*kT*kA*dA*dA*dG*dT*dG*dT*dA*dT*dG*dT*k[5mC]*kA*kG) [Compound 1197217]	8
1197218 (antisense kT*kT*kT*dA*dA*dA*dG*dT*dG*dT*dA*dT*dG*kT*k[5mC]*kA) [Compound 1197218]	29
1197219 (antisense kA*kA*k[5mC]*dT*dT*dT*dA*dA*dA*dG*dT*dG*dT*kA*kT*kG) [Compound 1197219]	71

same assay, conditions: Table 50; Yap1 mRNA remaining as percent of untreated control (UT), SNU-449 cells, single dose

Substance	YAP1 (% UT)
1197228 (antisense kA*kA*kT*dT*mG*dT*d[5mC]*dT*d[5mC]*dA*dT*dG*d[5mC]*k[5mC]*kT*kT) [Compound 1197228]	25
1197229 (antisense kG*kG*kA*dA*mA*dT*dT*dG*dT*d[5mC]*dT*d[5mC]*dA*kT*kG*k[5mC]) [Compound 1197229]	21
1197230 (antisense kT*kG*kG*dA*mA*dA*dT*dT*dG*dT*d[5mC]*dT*d[5mC]*kA*kT*kG) [Compound 1197230]	29
1197231 (antisense kA*kT*kG*dG*mA*dA*dA*dT*dT*dG*dT*d[5mC]*dT*k[5mC]*kA*kT) [Compound 1197231]	50
1197232 (antisense kA*kT*kA*dT*mG*dG*dA*dA*dA*dT*dT*dG*dT*k[5mC]*kT*k[5mC]) [Compound 1197232]	55
1197233 (antisense kT*kA*kG*dA*mG*dT*dA*dT*dG*dT*dG*dG*d[5mC]*kA*kA*kT) [Compound 1197233]	36
1197234 (antisense kT*kT*kA*dG*mA*dG*dT*dA*dT*dG*dT*dG*dG*k[5mC]*kA*kA) [Compound 1197234]	24
1197235 (antisense kA*kT*kT*dA*mG*dA*dG*dT*dA*dT*dG*dT*dG*kG*k[5mC]*kA) [Compound 1197235]	16
1197236 (antisense kT*kA*kT*dT*mA*dG*dA*dG*dT*dA*dT*dG*dT*kG*kG*k[5mC]) [Compound 1197236]	17
1197244 (antisense kT*kT*kA*d[5mC]*mA*dT*dT*dA*dG*dG*dA*dA*d[5mC]*kA*kA*kG) [Compound 1197244]	60
1197245 (antisense kT*kT*kT*dT*mA*d[5mC]*dA*dT*dT*dA*dG*dG*dA*kA*k[5mC]*kA) [Compound 1197245]	60
1197246 (antisense kA*kG*k[5mC]*dA*mC*dT*dT*dT*dT*dA*d[5mC]*dA*dT*kT*kA*kG) [Compound 1197246]	33
1197247 (antisense kA*kA*kG*d[5mC]*mA*d[5mC]*dT*dT*dT*dT*dA*d[5mC]*dA*kT*kT*kA) [Compound 1197247]	47

same assay, conditions: Table 51; Yap1 mRNA remaining as percent of untreated control (UT), SNU-449 cells, single dose

Substance	YAP1 (% UT)
1197237 (antisense kT*kA*kT*dA*mA*d[5mC]*dT*dG*dG*dG*d[5mC]*dA*dA*kA*kT*kT) [Compound 1197237]	74
1197238 (antisense kA*kG*kG*dT*mA*dT*dA*dA*d[5mC]*dT*dG*dG*dG*k[5mC]*kA*kA) [Compound 1197238]	43
1197239 (antisense kT*kG*kA*dG*mG*dT*dA*dT*dA*dA*d[5mC]*dT*dG*kG*kG*k[5mC]) [Compound 1197239]	47
1197240 (antisense k[5mC]*kT*kG*dA*mG*dG*dT*dA*dT*dA*dA*d[5mC]*dT*kG*kG*kG) [Compound 1197240]	58
1197241 (antisense kA*k[5mC]*kT*dG*mA*dG*dG*dT*dA*dT*dA*dA*d[5mC]*kT*kG*kG) [Compound 1197241]	19
1197242 (antisense k[5mC]*kA*k[5mC]*dT*mG*dA*dG*dG*dT*dA*dT*dA*dA*k[5mC]*kT*kG) [Compound 1197242]	46
1197243 (antisense kA*kA*k[5mC]*dA*mC*dT*dG*dA*dG*dG*dT*dA*dT*kA*kA*k[5mC]) [Compound 1197243]	81

same assay, conditions: Yap1 mRNA, percent of untreated control; modified oligonucleotides targeting SEQ ID NO: 1 and 2; Table 47

Substance	YAP1 (% UT)
1197209 (antisense kT*kG*kT*dA*dA*dT*dA*dT*dT*dG*d[5mC]*dA*dA*kT*k[5mC]*kT) [Compound 1197209]	33
1197210 (antisense kA*kT*kG*dT*dA*dA*dT*dA*dT*dT*dG*d[5mC]*dA*kA*kT*k[5mC]) [Compound 1197210]	105
1197211 (antisense kT*kA*kT*dG*dT*dA*dA*dT*dA*dT*dT*dG*d[5mC]*kA*kA*kT) [Compound 1197211]	80
1197212 (antisense kT*kT*kT*dA*dT*dG*dT*dA*dA*dT*dA*dT*dT*kG*k[5mC]*kA) [Compound 1197212]	55
1197220 (antisense kT*kA*kA*dG*dG*dT*dT*dT*d[5mC]*d[5mC]*d[5mC]*dA*dG*kA*kT*kT) [Compound 1197220]	32
1197221 (antisense kA*kG*kT*dA*dA*dG*dG*dT*dT*dT*d[5mC]*d[5mC]*d[5mC]*kA*kG*kA) [Compound 1197221]	42
1197222 (antisense kA*kA*kG*dT*dA*dA*dG*dG*dT*dT*dT*d[5mC]*d[5mC]*k[5mC]*kA*kG) [Compound 1197222]	40
1197223 (antisense kT*kA*kA*dG*dT*dA*dA*dG*dG*dT*dT*dT*d[5mC]*k[5mC]*k[5mC]*kA) [Compound 1197223]	11
1197224 (antisense kA*k[5mC]*kT*dA*dA*dG*dT*dA*dA*dG*dG*dT*dT*kT*k[5mC]*k[5mC]) [Compound 1197224]	24
1197225 (antisense kG*kA*k[5mC]*dT*dA*dA*dG*dT*dA*dA*dG*dG*dT*kT*kT*k[5mC]) [Compound 1197225]	46
1197226 (antisense kA*kG*kA*d[5mC]*dT*dA*dA*dG*dT*dA*dA*dG*dG*kT*kT*kT) [Compound 1197226]	67
1197227 (antisense kT*kT*kA*dG*dA*d[5mC]*dT*dA*dA*dG*dT*dA*dA*kG*kG*kT) [Compound 1197227]	64
